Tests used:
[1] = Induction of IFN gamma secretion in C57BL/6 mouse spleen cells at 100 ng/ml after 72 hrs relative to OCH; assay type: functional
[2] = Induction of IL4 secretion in C57BL/6 mouse spleen cells at 100 ng/ml after 72 hrs relative to OCH; assay type: functional

Compound | Activity [1] [%] | Activity [2] [%]
CCCCCCCCCCCCCCCCCCCCCCCC(=O)N[C@@H](CO[C@H]1O[C@H](CO)[C@H](O)[C@H](O)[C@H]1O)[C@H](O)[C@H](O)CCCCC | 100 | 100
CCCCCCCCCCCCCCCCCCCCCCCC(=O)N[C@@H](CO[C@H]1O[C@H](CO)[C@H](O)[C@H](O)[C@H]1O)[C@H](O)[C@H](O)CC | 81 | 102
CCCCCCCCCCCCCCCCCCCCCCCC(=O)N[C@@H](CO[C@H]1O[C@H](CO)[C@H](O)[C@H](O)[C@H]1O)[C@H](O)[C@H](O)CCC | 96 | 105
CCCCCCCCCCCCCCCCCCCCCCCCCCCC(=O)N[C@@H](CO[C@H]1O[C@H](CO)[C@H](O)[C@H](O)[C@H]1O)[C@H](O)[C@H](O)CCCCC | 761 | 178
CCCCCCCCCCCCCCCCCCCCCCCC(=O)N[C@@H](CO[C@H]1O[C@H](CCl)[C@H](O)[C@H](O)[C@H]1O)[C@H](O)[C@H](O)CC1CCCC1 | 74 | 98
CCCCCCCCCCCCCCCCCCCCCCCC(=O)N[C@@H](CO[C@H]1O[C@H](CCl)[C@H](O)[C@H](O)[C@H]1O)[C@H](O)[C@H](O)Cc1ccccc1 | 284 | 211
CCCCCCCCCCCCCCCCCCCC(=O)N[C@@H](CO[C@H]1O[C@H](CO)[C@H](O)[C@H](O)[C@H]1O)[C@H](O)[C@H](O)CCCCC | 9 | 6
CCCCCCCCCCCCCCCCCCCCCCCC(=O)N[C@@H](CO[C@H]1O[C@H](CO)[C@H](O)[C@H](O)[C@H]1O)[C@H](O)[C@H](O)CCCC | 112 | 115
CCCCCCCCCCCCCCCCCCCCCCCCCC(=O)N[C@@H](CO[C@H]1O[C@H](CO)[C@H](O)[C@H](O)[C@H]1O)[C@H](O)[C@H](O)CCCCC | 504 | 129
CCCCCCCCCCCCCCCCCCCCCCC(=O)N[C@@H](CO[C@H]1O[C@H](CO)[C@H](O)[C@H](O)[C@H]1O)[C@H](O)[C@H](O)CCCCC | 93 | 103
CCCCCCCCCCCCCCCCCCCCCCCCC(=O)N[C@@H](CO[C@H]1O[C@H](CO)[C@H](O)[C@H](O)[C@H]1O)[C@H](O)[C@@H](O)CCCCC | 103 | 154
CCCCCCCCCCCCCCCCCCCCCC(=O)N[C@@H](CO[C@H]1O[C@H](CO)[C@H](O)[C@H](O)[C@H]1O)[C@H](O)[C@H](O)CCCCC | 46 | 51
CCCCCCCCCCCCCCCCCCCCCCCCCC(=O)N[C@@H](CO[C@H]1O[C@H](CO)[C@H](O)[C@H](O)[C@H]1O)[C@H](O)[C@H](O)CCCCCCCCCCCCCC [RGI-7000] | 569 | 128

From ChEMBL document CHEMBL1147986, “Minimum structure requirement of immunomodulatory glycolipids for predominant Th2 cytokine induction and the discovery of non-linear phytosphingosine analogs” (2007)
